Measurements published in US20260166039A1 (SCHRÖDINGER, INC., priority 2022, published 2026).
pIC50: −log10 of the molar value.

target: T1, Wee1 kinase domain (Homo sapiens, UniProt P30291); assay: Wee1 Kinase Biochemical Assay (ADP-Glo); conditions: Wee1 kinase domain, 15 uM ATP, ADP-Glo
T1 construct: Wee1 kinase domain was purchased from Carna (catalog #05-177); purchased Carna 05-177
Outline: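 Carna Wee1 kinase domain at 1 nM, with 15 uM ATP and 2 ng/mL poly(Lys,Tyr 4:1) substrate in 40 mM Tris-HCl, 20 mM MgCl2, 0.1 mg/mL BSA, 2 mM DTT, run 4 h at 25° C. ADP formation read by ADP-Glo luminescence. Percent inhibition normalised to DMSO and saturating-inhibitor controls.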

T1 sequence (P30291 299-569 limits assumed): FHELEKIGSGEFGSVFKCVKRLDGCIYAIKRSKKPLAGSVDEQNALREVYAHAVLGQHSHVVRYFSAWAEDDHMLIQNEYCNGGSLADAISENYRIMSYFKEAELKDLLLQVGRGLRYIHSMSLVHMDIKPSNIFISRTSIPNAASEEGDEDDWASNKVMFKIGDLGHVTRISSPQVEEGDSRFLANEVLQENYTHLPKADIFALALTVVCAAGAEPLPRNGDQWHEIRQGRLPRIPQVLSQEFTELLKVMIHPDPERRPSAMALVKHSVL

| SMILES | pIC50 |
| --- | --- |
| CNCc1cccc(N2c3nc(Nc4ccc(N5CCOCC5)c(C)c4)ncc3[C@]3(C)COC(C)(C)C[C@H]23)n1 (single isomer, unassigned) [Example 25] | 7.00 to 8.00 |
| CNCc1cccc(N2c3nc(Nc4ccc(C(=O)N5CCOCC5)cc4)ncc3[C@]3(C)COC(C)(C)C[C@H]23)n1 (single isomer, unassigned) [Example 23] | 6.00 to 7.00 |
| CN=S1(=O)CCN(c2ccc(Nc3ncc4c(n3)N(c3cccc(CNC)n3)[C@H]3CC(C)(C)OC[C@@]43C)cc2)CC1 (single isomer, unassigned) [Example 66] | 6.00 to 7.00 |
| Cc1cc(Nc2ncc3c(n2)N(c2cccc(N=S(C)(C)=O)n2)[C@H]2CC(C)(C)OC[C@@]32C)ccc1[C@H]1CCN(C)C1 (single isomer, unassigned) [Example 148] | 7.00 to 8.00 |
| C[C@H]1COC(=O)N1c1cccc(N2c3nc(Nc4ccc(N5CCN(C)CC5)nn4)ncc3[C@]3(C)COC(C)(C)C[C@H]23)n1 (single isomer, unassigned) [Example 248] | 6.00 to 7.00 |
| CN1Cc2cc(Nc3ncc4c(n3)N(c3cccc(N=S(C)(C)=O)n3)[C@H]3CC(C)(C)OC[C@@]43C)cnc2C1 (single isomer, unassigned) [Example 187] | ≤ 6.00 |
| CNCc1cccc(N2c3nc(Nc4ccc([C@H]5CNC(=O)C5)cc4)ncc3[C@]3(C)COC(C)(C)C[C@H]23)n1 (single isomer, unassigned) [Example 62] | 7.00 to 8.00 |
| CC1(C)C[C@H]2N(c3cccc(N=S(C)(C)=O)n3)c3nc(Nc4ccc5nccn5n4)ncc3[C@@]2(C)CO1 [Example 361, ((6-((4bR,8aR)-2-(imidazo[1,2-b]pyridazin-6-ylamino)-4b,7,7-trimethyl-4b,7,8,8a-tetrahydropyrano[3′,4′:4,5]pyrrolo[2,3-d]pyrimidin-9(5H)-yl)pyridin-2-yl)imino)dimethyl-l6-sulfanone] | > 8.00 |
| CNCc1cccc(N2c3nc(Nc4ccc5c(c4)C(=O)N(C)C5)ncc3[C@]3(C)COC(C)(C)C[C@H]23)n1 (single isomer, unassigned) [Example 31] | 6.00 to 7.00 |
| CC1(C)C[C@@H]2N(c3cccc(N=S(C)(C)=O)n3)c3nc(Nc4ccc(C5CNC5)cc4)ncc3[C@]2(C)CO1 (single isomer, unassigned) [Example 164] | 7.00 to 8.00 |
| Cc1cc(Nc2ncc3c(n2)N(c2cccc(N4C(=O)OC[C@@H]4C)n2)[C@H]2CC(C)(C)OC[C@@]32C)ccc1[C@H]1CCNC1 (single isomer, unassigned) [Example 266] | 7.00 to 8.00 |

same assay, conditions: class symbols; 1 nM Wee1 enzyme, 15 uM ATP, 4 hours at 25° C.

| SMILES | pIC50 |
| --- | --- |
| CN1CC[C@@](C)(c2ccc(Nc3ncc4c(n3)N(c3cccc(N5CCOC5=O)n3)[C@H]3CC(C)(C)OC[C@@]43C)cc2)C1 [Example 671, 3-(6-((4bS,8aS)-2-((4-((S)-1,3-dimethylpyrrolidin-3-yl)phenyl)amino)-4b,7,7-trimethyl-4b,7,8,8a-tetrahydropyrano[3′,4′:4,5]pyrrolo[2,3-d]pyrimidin-9(5H)-yl)pyridin-2-yl)oxazolidin-2-one] | 7.00 to 8.00 |
| CN1C[C@H]2C[C@@H]1CN2c1ccc(Nc2ncc3c(n2)N(c2cccc(N4CCOC4=O)n2)[C@H]2CC(C)(C)OC[C@@]32C)cc1F [Example 669, 3-(6-((4bS,8aS)-2-((3-fluoro-4-((1R,4R)-5-methyl-2,5-diazabicyclo[2.2.1]heptan-2-yl)phenyl)amino)-4b,7,7-trimethyl-4b,7,8,8a-tetrahydropyrano[3′,4′:4,5]pyrrolo[2,3-d]pyrimidin-9(5H)-yl)pyridin-2-yl)oxazolidin-2-one] | 7.00 to 8.00 |
| CNCc1cccc(N2c3nc(Nc4ccc(C(C)(C)C(=O)O)cc4)ncc3[C@]3(C)COC(C)(C)C[C@H]23)n1 (single isomer, unassigned) [Example 457] | ≤ 6.00 |
| CN(C)Cc1cccc(N2c3nc(Nc4ccc(C(C)(C)C(=O)O)cc4)ncc3[C@]3(C)COC(C)(C)C[C@H]23)n1 [Example 610, 2-(4-(((4bS,8aS)-9-(6-((dimethylamino)methyl)pyridin-2-yl)-4b,7,7-trimethyl-4b,5,7,8,8a,9-hexahydropyrano[3′,4′:4,5]pyrrolo[2,3-d]pyrimidin-2-yl)amino)phenyl)-2-methylpropanoic acid] | ≤ 6.00 |
| Cc1cc(Nc2ncc3c(n2)N(c2cccc([C@H]4CCCN4)n2)[C@H]2CC(C)(C)OC[C@@]32C)ccc1N1CCOCC1 (single isomer, unassigned) [Example 521] | 6.00 to 7.00 |
| CNCc1cccc(N2c3nc(Nc4ccc([C@H]5CCNC5)cc4)ncc3[C@]3(C)COC(C)(C)C[C@H]23)n1 (single isomer, unassigned) [Example 451] | 6.00 to 7.00 |
| CNCc1cccc(N2c3nc(NC(=O)C4CC4)ncc3[C@@]3(C)COC(C)(C)C[C@@H]23)n1 (single isomer, unassigned) [Example 762] | 7.00 to 8.00 |
| CNCc1cccc(N2c3nc(Nc4ccc(N5CCOC[C@H]5C)cc4)ncc3[C@]3(C)COC(C)(C)C[C@H]23)n1 (single isomer, unassigned) [Example 474] | 6.00 to 7.00 |
| Cc1cc(Nc2ncc3c(n2)N(c2cccc(N4CCOC4=O)n2)[C@H]2CC(C)(C)OC[C@@]32C)ccc1N1C[C@H]2C[C@@H]1CN2C [Example 661, 3-(6-((4bS,8aS)-4b,7,7-trimethyl-2-((3-methyl-4-((1R,4R)-5-methyl-2,5-diazabicyclo[2.2.1]heptan-2-yl)phenyl)amino)-4b,7,8,8a-tetrahydropyrano[3′,4′:4,5]pyrrolo[2,3-d]pyrimidin-9(5H)-yl)pyridin-2-yl)oxazolidin-2-one] | 7.00 to 8.00 |
| CN1CC2(C1)CN(c1ccc(Nc3ncc4c(n3)N(c3cccc(N5C(=O)OCC5(C)C)n3)[C@@H]3CC(C)(C)OC[C@]43C)cc1)C2 (single isomer, unassigned) [Example 785] | > 8.00 |
| CN1[C@@H]2C[C@H]1CN(c1ccc(Nc3ncc4c(n3)N(c3cccc(N5CCCC5=O)n3)[C@H]3CC(C)(C)OC[C@@]43C)cc1)C2 [Example 704, 1-(6-((4bS,8aS)-4b,7,7-trimethyl-2-((4-((1R,5S)-6-methyl-3,6-diazabicyclo[3.1.1]heptan-3-yl)phenyl)amino)-4b,7,8,8a-tetrahydropyrano[3′,4′:4,5]pyrrolo[2,3-d]pyrimidin-9(5H)-yl)pyridin-2-yl)pyrrolidin-2-one] | 6.00 to 7.00 |
| CN1CC[C@H]2CN(c3ccc(Nc4ncc5c(n4)N(c4cccc(N6CCCC6=O)n4)[C@H]4CC(C)(C)OC[C@@]54C)cc3)C[C@H]21 [Example 689, 1-(6-((4bS,8aS)-4b,7,7-trimethyl-2-((4-((3aS,6aS)-1-methylhexahydropyrrolo[3,4-b]pyrrol-5(1H)-yl)phenyl)amino)-4b,7,8,8a-tetrahydropyrano[3′,4′:4,5]pyrrolo[2,3-d]pyrimidin-9(5H)-yl)pyridin-2-yl)pyrrolidin-2-one] | 6.00 to 7.00 |
| CC1(C)C[C@@H]2N(c3cccc([C@@H]4CCCN4)n3)c3nc(Nc4ccc(N5CCOCC5)cc4)ncc3[C@]2(C)CO1 (single isomer, unassigned) [Example 525] | 6.00 to 7.00 |
| CN1C[C@@H]2CN(c3ccc(Nc4ncc5c(n4)N(c4cccc(N6CCCC6=O)n4)[C@H]4CC(C)(C)OC[C@@]54C)cc3)C[C@@H]2C1 [Example 695, 1-(6-((4bS,8aS)-4b,7,7-trimethyl-2-((4-((3aR,6aS)-5-methylhexahydropyrrolo[3,4-c]pyrrol-2(1H)-yl)phenyl)amino)-4b,7,8,8a-tetrahydropyrano[3′,4′:4,5]pyrrolo[2,3-d]pyrimidin-9(5H)-yl)pyridin-2-yl)pyrrolidin-2-one] | 7.00 to 8.00 |
